Results as given in US12122803B2, “Crystalline forms of a neuroactive steroid” (priority 2021, dated 2024).

Legend:
Format in all cases: physicochemical
[1] = Dynamic vapor sorption (DVS) analysis; details: for hygroscopicity by DVS / mass uptake by DVS / mass uptake by DVS expressed as equivalents of water: 25° C.; for hygroscopicity by DVS: up to 90% RH; for change of the XRPD pattern of the sample following the DVS analysis: after two sorption/desorption cycles at 25° C.; for mass uptake by DVS / mass uptake by DVS expressed as equivalents of water: at 90% RH
Protocol: Approximately 10-20 mg of sample was placed into a mesh vapor sorption balance pan and loaded into a DVS Intrinsic/Advantage dynamic vapor sorption balance by Surface Measurement Systems. The sample was subjected to a ramping profile from 40-90% relative humidity (RH) at 10% increments, maintaining the sample at each step until a stable weight had been achieved (dm/dt 0.004%, minimum step length 30 minutes, maximum step length 500 minutes) at 25° C. After completion of the sorption cycle, the sample was dried using the same procedure to 0% RH and then a second sorption cycle back to 40% RH. Two cycles were performed. The weight change during the sorption/desorption cycles were plotted, allowing for the hygroscopic nature of the sample to be determined. XRPD analysis was then carried out on any solid retained. The microbalance was calibrated monthly using a certified calibration weight and the relative humidity at 25° C. was calibrated against deliquescence point of LiCl, MgCl and NaCl. Data were not corrected for the initial water content of the sample, and data were shown according to the dry mass of the sample at 0% RH.

[2] = Competitive slurry experiments of Form S1 and Form S4; details: IPA, approximately equal amounts of Form S1 and Form S4
Protocol: To verify the transition temperature between Form S1 and Form S4 of Compound (1) calculated from the DSC data, competitive slurry experiments of Form S1 and Form S4 were performed.
In each experiment, slurries were generated using approximately equal amounts of Form S1 and Form S4. The forms were suspended in 0.3 mL of solvent in a 1.5 mL glass vial. […] The remaining solids were isolated via centrifugation (10000 rpm, 3 min) and analyzed using the XPRD analysis method described above.

[3] = DSC analysis (form conversion under heating); details: TGA/DSC heating
Protocol: (§1) TGA data were collected using a TA Q500 TGA from TA Instruments, and DSC was conducted using a TA Q2000 DSC from TA Instruments. The TGA was calibrated with a nickel reference standard and the DSC was calibrated with an indium reference standard.

[4] = TGA analysis; details: up to 185° C., heating rate 10° C./min
Protocol: as §1

| Compound | hygroscopicity by DVS [1] | change of the XRPD pattern of the sample following the DVS analysis [1] | mass uptake by DVS [1] | mass uptake by DVS expressed as equivalents of water [1] [eq. water] | Results: solid form remaining after competitive slurry (XRPD) ([2]; 80 ° C., time point not given) | form conversion under heating conditions (thermal analyses) [3] | weight loss on the TGA curve [4] [%] | Results: solid form remaining after competitive slurry (XRPD) ([2]; 60 ° C., time point 1 hr) | Results: solid form remaining after competitive slurry (XRPD) ([2]; 70 ° C., time point 1 hr) |
| --- | --- | --- | --- | --- | --- | --- | --- | --- | --- |
| COC[C@@]1(O)CC[C@H]2[C@@H](CC[C@@H]3[C@@H]2CC[C@]2(C)[C@@H](C(=O)Cn4nnc(C)n4)CC[C@@H]32)C1 [Form S1] | substantially non-hygroscopic | No change | ca. 0.6 wt. % | 0.14 | converted to Form S4 | converts to Form S4 | 0.1 | – | – |
| COC[C@@]1(O)CC[C@H]2[C@@H](CC[C@@H]3[C@@H]2CC[C@]2(C)[C@@H](C(=O)Cn4nnc(C)n4)CC[C@@H]32)C1 [Form S1 and Form S4] | – | – | – | – | Form S4 | – | – | Form S1 | Form S1 |
| COC[C@@]1(O)CC[C@H]2[C@@H](CC[C@@H]3[C@@H]2CC[C@]2(C)[C@@H](C(=O)Cn4nnc(C)n4)CC[C@@H]32)C1 [Form S4] | non-hygroscopic | No change | ca. 0.12 wt. % | 0.02 | – | – | 0.1 | converted to Form S1 | converted to Form S1 |
